# Assay results as given in patent publication US20110152092A1, “Herbicidal compositions comprising flufenacet” (Bayer CropScience AG, priority 2009, published 2011).
# Key:
# [1] = test system: STEME; assay: Greenhouse trial, activity with different soil types; format: in vivo, Stellaria media; conditions: g of AS/ha: (A) 120, (B) 1200, (C) 90, mixture 120 + 1200 + 90
# Procedure: (§1) In the standard design of the test, seeds of various broad-leaved weed and weed grass biotypes (origins) were sown in a 8-13 cm diameter pot filled with natural soil of a standard field soil (loamy silt; non-sterile) and covered with a covering soil layer of about 1 cm. The pots were then cultivated in a greenhouse (12-16 h of light, temperature day 20-22° C., night 15-18° C.) until the time of application. The pots were treated on a laboratory track sprayer with spray liquors comprising the compositions according to the invention, mixtures of the prior art or components used individually. Application of the active compounds or active compound combinations formulated as WG, WP, EC or otherwise was carried out at the appropriate growth stages of the plants. The application rate for the spray application was 100-600 l of water/ha. After the treatment, the plants were returned to the greenhouses.
# (§2) About 3 weeks after the application, the soil action or/and foliar action was assessed visually according to a scale of 0-100% in comparison to an untreated comparative group: 0%=no noticeable effect compared to the untreated comparative group; 100%=full effect compared to the untreated comparative group.
# (§3) (notes: the term “seeds” also includes vegetative propagation forms such as, for example, rhizome pieces; abbreviations used: h light=hours of illumination, g of AS/ha=gram of active substance per hectare, l/ha=liter per hectare, S=sensitive, R=resistant) • 1. Pre-emergence action against weeds: seeds of various broad-leaved weed and weed grass biotypes (origins) were sown in a 8-13 cm diameter pot filled with natural soil of a standard field soil (loamy silt; non-sterile) and covered with a covering soil layer of about 1 cm. The pots were then cultivated in a greenhouse (12-16 h of light, temperature day 20-22° C., night 15-18° C.) until the time of application. The pots were treated at the BBCH stage 00-10 of the seeds/plants on a laboratory track sprayer with spray liquors comprising the compositions according to the invention, mixtures or components used individually, as WG, WP, EC or other formulations. The application rate for the spray application was 100-600 l of water/ha. After the treatment, the plants were returned to the greenhouses and, when required, treated with fertilizer and watered. • 2. Post-emergence action against weeds: seeds of various broad-leaved weed and weed grass biotypes (origins) were sown in a 8-13 cm diameter pot filled with natural soil of a standard field soil (loamy silt; non-sterile) and covered with a covering soil layer of about 1 cm. The pots were then cultivated in a greenhouse (12-16 h of light, temperature day 20-22° C., night 15-18° C.) until the time of application. The pots were treated at various BBCH stages between 11-25 of the seeds/plants, i.e. generally between two to three weeks after the start of the cultivation, on a laboratory track sprayer with spray liquors comprising the compositions according to the invention, mixtures or components used individually, as WG, WP, EC or other formulations. The application rate for the spray application was 100-600 l of water/ha. After the treatment, the plants were returned to the greenhouses and, when required, treated with fertilizer and watered. • 3. Selective pre-emergence action: seeds of various crop species (origins) were sown in a 8-13 cm diameter pot filled with natural soil of a standard field soil (loamy silt; non-sterile) and covered with a covering soil layer of about 1 cm. The pots were then cultivated in a greenhouse (12-16 h of light, temperature day 20-22° C., night 15-18° C.) until the time of application. The pots were treated at the BBCH stage 00-10 of the seeds/plants on a laboratory track sprayer with spray liquors comprising the compositions according to the invention, mixtures or components used individually, as WG, WP, EC or other formulations. The application rate for the spray application was 100-600 l of water/ha. […]
# [2] = test system: MATCH; assay: as above; format: in vivo, Matricaria chamomilla; conditions: g of AS/ha: (A) 120, (B) 1200, (C) 90, mixture 120 + 1200 + 90
# Procedure: as §1, §2
# (§4) (notes: the term “seeds” also includes vegetative propagation forms such as, for example, rhizome pieces; abbreviations used: h light=hours of illumination, g of AS/ha=gram of active substance per hectare, l/ha=liter per hectare, S=sensitive, R=resistant) • 1. Pre-emergence action against weeds: seeds of various broad-leaved weed and weed grass biotypes (origins) were sown in a 8-13 cm diameter pot filled with natural soil of a standard field soil (loamy silt; non-sterile) and covered with a covering soil layer of about 1 cm. The pots were then cultivated in a greenhouse (12-16 h of light, temperature day 20-22° C., night 15-18° C.) until the time of application. The pots were treated at the BBCH stage 00-10 of the seeds/plants on a laboratory track sprayer with spray liquors comprising the compositions according to the invention, mixtures or components used individually, as WG, WP, EC or other formulations. The application rate for the spray application was 100-600 l of water/ha. After the treatment, the plants were returned to the greenhouses and, when required, treated with fertilizer and watered. • 2. Post-emergence action against weeds: seeds of various broad-leaved weed and weed grass biotypes (origins) were sown in a 8-13 cm diameter pot filled with natural soil of a standard field soil (loamy silt; non-sterile) and covered with a covering soil layer of about 1 cm. The pots were then cultivated in a greenhouse (12-16 h of light, temperature day 20-22° C., night 15-18° C.) until the time of application. The pots were treated at various BBCH stages between 11-25 of the seeds/plants, i.e. generally between two to three weeks after the start of the cultivation, on a laboratory track sprayer with spray liquors comprising the compositions according to the invention, mixtures or components used individually, as WG, WP, EC or other formulations. The application rate for the spray application was 100-600 l of water/ha. After the treatment, the plants were returned to the greenhouses and, when required, treated with fertilizer and watered. • 3. […]
# [3] = test system: HORVS; assay: as above; format: in vivo, Hordeum vulgare, summer barley; conditions: g of AS/ha: (A) 120, (B) 1200, (C) 90, mixture 120 + 1200 + 90
# Procedure: as §1, §2, §4
# [4] = test system: STEME; assay: Greenhouse trial, PE application on sensitive and resistant biotypes (test method 8); format: in vivo, Stellaria media; conditions: g of AS/ha: (A) 90, (B) 1200, (C) 90, mixture 90 + 1200 + 90, iodosulfuron 10
# Procedure: as §1
# as §2, with “group. […]” for “group.”
# [5] = test system: ALOMY; assay: as above; format: in vivo, Alopecurus myosuroides; conditions: g of AS/ha: (A) 90, (B) 1200, (C) 90, mixture 90 + 1200 + 90, iodosulfuron 10
# Procedure: as §1, §2, §3
# [6] = test system: APESV; assay: Greenhouse trial, PE application at different sowing depths (test method 9); format: in vivo, Apera Spica-venti; conditions: g of AS/ha: (A) 120, (B) 1200, (C) 90, mixture 90 + 1200 + 90
# Procedure: as §1, §2
# (notes: the term “seeds” also includes vegetative propagation forms such as, for example, rhizome pieces; abbreviations used: h light=hours of illumination, g of AS/ha=gram of active substance per hectare, l/ha=liter per hectare, S=sensitive, R=resistant) • 1. Pre-emergence action against weeds: seeds of various broad-leaved weed and weed grass biotypes (origins) were sown in a 8-13 cm diameter pot filled with natural soil of a standard field soil (loamy silt; non-sterile) and covered with a covering soil layer of about 1 cm. The pots were then cultivated in a greenhouse (12-16 h of light, temperature day 20-22° C., night 15-18° C.) until the time of application. […]
# [7] = test system: TRZAW; assay: as above; format: in vivo, Triticum aestivum, winter wheat; conditions: g of AS/ha: (A) 120, (B) 1200, (C) 90, mixture 90 + 1200 + 90
# Procedure: as §1, §2
# (notes: the term “seeds” also includes vegetative propagation forms such as, for example, rhizome pieces; abbreviations used: h light=hours of illumination, g of AS/ha=gram of active substance per hectare, l/ha=liter per hectare, S=sensitive, R=resistant) • 1. Pre-emergence action against weeds: seeds of various broad-leaved weed and weed grass biotypes (origins) were sown in a 8-13 cm diameter pot filled with natural soil of a standard field soil (loamy silt; non-sterile) and covered with a covering soil layer of about 1 cm. The pots were then cultivated in a greenhouse (12-16 h of light, temperature day 20-22° C., night 15-18° C.) until the time of application. The pots were treated at the BBCH stage 00-10 of the seeds/plants on a laboratory track sprayer with spray liquors comprising the compositions according to the invention, mixtures or components used individually, as WG, WP, EC or other formulations. The application rate for the spray application was 100-600 l of water/ha. After the treatment, the plants were returned to the greenhouses and, when required, treated with fertilizer and watered. • 2. Post-emergence action against weeds: seeds of various broad-leaved weed and weed grass biotypes (origins) were sown in a 8-13 cm diameter pot filled with natural soil of a standard field soil (loamy silt; non-sterile) and covered with a covering soil layer of about 1 cm. The pots were then cultivated in a greenhouse (12-16 h of light, temperature day 20-22° C., night 15-18° C.) until the time of application. […]
smiles,measurement,setting,value
"CCC(CC)Nc1c([N+](=O)[O-])cc(C)c(C)c1[N+](=O)[O-] [(B) pendimethalin, N-(1-ethylpropyl)-3,4-dimethyl-2,6-dinitrobenzenamine]","activity STEME IU soil (visual, scale 0-100%)",[1]; IU soil,85%
same,"Difference of the soil types, STEME",[1]; IU/EC73 soil versus IU soil,−30%
same,"activity STEME IU/EC73 soil (visual, scale 0-100%)",[1]; IU/EC73 soil,55%
same,"activity MATCH IU soil (visual, scale 0-100%)",[2]; IU soil,10%
same,"Difference of the soil types, MATCH",[2]; IU/EC73 soil versus IU soil,−10%
same,"activity MATCH IU/EC73 soil (visual, scale 0-100%)",[2]; IU/EC73 soil,0%
same,"activity on crop plant HORVS IU soil (visual, scale 0-100%)",[3]; IU soil,20%
same,"Difference (of the soil types), HORVS",[3]; IU/EC73 soil versus IU soil,−20%
same,"activity on crop plant HORVS IU/EC73 soil (visual, scale 0-100%)",[3]; IU/EC73 soil,0%
same,"activity STEME resistant (visual, scale 0-100%)",[4]; resistant biotype,10%
same,"activity STEME sensitive (visual, scale 0-100%)",[4]; sensitive biotype,70%
same,"activity ALOMY resistant (visual, scale 0-100%)",[5]; resistant biotype,40%
same,"activity ALOMY sensitive (visual, scale 0-100%)",[5]; sensitive biotype,30%
same,"activity APESV 5 mm (visual, scale 0-100%)",[6]; sowing depth 5 mm,0%
same,"activity APESV 20 mm (visual, scale 0-100%)",[6]; sowing depth 20 mm,0%
same,"activity on crop plant TRZAW 5 mm (visual, scale 0-100%)",[7]; sowing depth 5 mm,45%
same,"activity on crop plant TRZAW 20 mm (visual, scale 0-100%)",[7]; sowing depth 20 mm,10%
